Here are results for seven compounds from patent publication US12344626B2, “Pharmaceutical compounds and therapeutic methods” (RUTGERS, THE STATE UNIVERSITY OF NEW JERSEY, priority 2019, dated 2025).

Data set [1] can be described thus: Solubility of zinc complexes. The format is physicochemical.
The test system of the next data set is human tumor cell lines. The data set is described as follows: Cell growth inhibition assay (Calcein AM). The format is cell-based. The settings on record: for EC50: Calcein AM, incubation for 3 days; for Fold (Zn-1/compound) / Fold (compound/Zn-1): ratio of EC50s. On the procedure: (§1) Cell growth inhibition assay using human tumor cell lines with different p53 status (wildtype, null, p53-R175H or other zinc binding deficient mutants) are employed to determine if a test compound functions as a zinc metallochaperone to restore wildtype p53 functions. Five thousand cells per well are cultured in 96-well plate to reach the 50% confluence on the second day when treated with serial dilutions of the compounds. Growth is measured by Calcein AM assay after incubation for 72 hours.
The cell growth inhibition assay was performed by Calcein AM assay (Trevigen). Five thousand cells per well were cultured in 96-well plate to reach the 50% confluence on the second day when treated with serial dilutions of the compounds. Growth was measured by Calcein AM assay (Trevigen) and Victor Plate reader instrument (PerkinElmer) after incubation for 3 days.

The test system of the next data set is p53R175H cells. Briefly: Potency against p53R175H cells in vitro, compared with the monomer from Zn-1. Format: cell-based. As for the experimental part: as §1
Data set [2] addresses T1, mutant p53 (Homo sapiens, UniProt P04637, R175H).
T1 construct: endogenous in cells; host or cells: p53-R175H cells (e.g. TOV112D)
Briefly: Immunofluorescent staining with p53 conformation specific antibodies (PAB240, PAB1620). Format: cell-based. To be noted: PAB 1620 (wild type specific). As for the experimental part:
An immunofluorescent staining using p53 conformation specific antibodies is used to determine if a test compound could induce the mutant p53 protein refolding to a wildtype conformation. The p53-R175H cells (e.g. TOV112D) cultured in DMEM+10% FBS are treated with a test compound for 6 hours, then fixed and stained with the antibodies PAB1620 (recognizing WT conformation) and PAB240 (recognizing misfolded/unfolded conformation) respectively.

Data set [3] relates to p53 target genes p21, PUMA and GDF15. The data set is described as follows: Quantitative PCR of p53 target genes (restoration of wild type transcriptional function). Format: cell-based. To be noted: for p21, PUMA and GDF15 levels: quantitative PCR.
Data set [4] deals with T1, mutant p53. The data set is described as follows: Cell growth inhibition after mutant p53 knock-down using siRNA. Format: cell-based. The settings on record: mutant p53 knocked down using an siRNA.
The next data set deals with T2, COX1(h) (Homo sapiens, UniProt P23219).
T2 construct: Eurofins (Cerep) SafetyScreen44 panel, contract screen P270
T2 sequence (P23219 24-599): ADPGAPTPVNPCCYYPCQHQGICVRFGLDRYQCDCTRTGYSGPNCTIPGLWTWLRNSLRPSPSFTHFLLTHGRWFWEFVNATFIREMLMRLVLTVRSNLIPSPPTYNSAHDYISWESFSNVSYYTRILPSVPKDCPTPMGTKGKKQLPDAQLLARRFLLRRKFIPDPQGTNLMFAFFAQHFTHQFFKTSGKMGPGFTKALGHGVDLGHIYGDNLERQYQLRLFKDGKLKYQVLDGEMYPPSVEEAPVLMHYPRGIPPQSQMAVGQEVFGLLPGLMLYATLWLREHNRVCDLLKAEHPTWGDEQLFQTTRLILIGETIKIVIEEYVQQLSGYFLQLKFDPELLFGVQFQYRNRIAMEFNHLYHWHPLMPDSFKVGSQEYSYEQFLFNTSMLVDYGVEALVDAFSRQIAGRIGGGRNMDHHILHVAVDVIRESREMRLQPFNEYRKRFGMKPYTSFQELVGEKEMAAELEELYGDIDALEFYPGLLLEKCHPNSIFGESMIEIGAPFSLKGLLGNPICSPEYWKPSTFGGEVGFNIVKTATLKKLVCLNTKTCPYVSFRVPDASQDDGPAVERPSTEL
Briefly: CEREP-44 Safety Screen: COX1. The format is biochemical. Also on record: dose or concentration left out as unconfirmed.

The target in a further data set is T3, COX2(h) (Homo sapiens, UniProt P35354).
T3 construct: Eurofins (Cerep) SafetyScreen44 panel, contract screen P270
T3 sequence (P35354 18-604): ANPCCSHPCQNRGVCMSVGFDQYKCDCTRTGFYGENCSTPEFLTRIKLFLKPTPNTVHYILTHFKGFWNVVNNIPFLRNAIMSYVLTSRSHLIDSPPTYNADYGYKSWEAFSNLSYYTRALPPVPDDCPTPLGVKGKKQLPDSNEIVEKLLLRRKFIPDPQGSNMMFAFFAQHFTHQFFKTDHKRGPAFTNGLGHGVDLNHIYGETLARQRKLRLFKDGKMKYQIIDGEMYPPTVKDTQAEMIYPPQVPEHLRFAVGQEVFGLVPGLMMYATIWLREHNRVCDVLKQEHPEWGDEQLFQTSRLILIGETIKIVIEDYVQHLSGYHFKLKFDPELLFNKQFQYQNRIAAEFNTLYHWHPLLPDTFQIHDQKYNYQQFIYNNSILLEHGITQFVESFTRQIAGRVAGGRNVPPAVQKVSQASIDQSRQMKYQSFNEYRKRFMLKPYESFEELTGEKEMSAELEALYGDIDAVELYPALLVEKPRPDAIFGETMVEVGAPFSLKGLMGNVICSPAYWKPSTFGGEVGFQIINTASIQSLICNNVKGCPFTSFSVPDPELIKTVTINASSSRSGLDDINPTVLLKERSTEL
The data set is described as follows: CEREP-44 Safety Screen: COX2. Format: biochemical. More on the design: dose or concentration left out as unconfirmed.

The next data set addresses T4, 5-HT2B (Homo sapiens, UniProt P41595).
T4 construct: Eurofins (Cerep) SafetyScreen44 panel, contract screen P270
The data set is described as follows: CEREP-44 Safety Screen: 5-HT2B. Format: binding. Also on record: dose or concentration left out as unconfirmed.

“Also recorded” adds a separate entry of the source.

T4 sequence (P41595 whole entry): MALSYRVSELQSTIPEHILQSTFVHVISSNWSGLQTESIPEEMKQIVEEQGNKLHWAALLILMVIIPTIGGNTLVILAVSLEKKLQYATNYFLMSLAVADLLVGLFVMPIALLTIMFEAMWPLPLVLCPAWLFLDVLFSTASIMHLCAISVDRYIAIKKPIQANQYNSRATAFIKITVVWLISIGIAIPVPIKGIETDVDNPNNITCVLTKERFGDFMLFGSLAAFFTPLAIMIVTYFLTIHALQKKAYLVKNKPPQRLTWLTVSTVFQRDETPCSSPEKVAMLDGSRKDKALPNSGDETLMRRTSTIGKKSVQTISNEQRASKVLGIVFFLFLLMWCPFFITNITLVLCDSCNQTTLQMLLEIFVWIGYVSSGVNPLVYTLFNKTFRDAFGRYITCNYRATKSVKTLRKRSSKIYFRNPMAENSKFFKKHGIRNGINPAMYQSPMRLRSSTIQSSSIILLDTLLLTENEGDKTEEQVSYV

As for `COc1ccnc(/C(C)=N/NC(=S)N(C)C)c1.COc1ccnc(/C(C)=N/NC(=S)N(C)C)c1.[Zn]` [Zn-11, Zn[(E)-2-(1-(4-methoxypyridin-2-yl)ethylidene)-N,N-dimethylhydrazine-1-carbothioamide]2], in data set [1], the “Solubility DMSO 4 mg/ml” value was “Yes”, the “Solubility DMSO 10 mg/ml” value is “Yes”, the “Solubility EtOH 1 mg/ml” value is “Partial” and the “Solubility H2O:DMSO 1:1 0.5 mg/mL” value is “No at 0.5”. In data set [1] (H2O:DMSO 1:1 at 0.5 mg/mL, compared among Zn-8, Zn-11 and Zn-14), the “Qualitative relative solubility in 1:1 DMSO:water” value was “qualitatively more soluble; also recorded: *Qualitatively slightly more soluble compared with Zn-8 and Zn-14”. In the data set with human tumor cell lines, the concentration for a half-maximal effect (EC50) is 0.22 nM, the “Fold (Zn-1/compound)” value is recorded as 12.2 and the “Fold (compound/Zn-1)” value is 0.1. The “More potent than the monomer from Zn-1” value in the data set on p53R175H cells is 209 fold.

Regarding “Zn[(E)-2-(1-(4-(2-methoxyethoxy)pyridin-2-yl)ethylidene)-N,N-dimethylhydrazine-1-carbothioamide]2 [ZN-8]”, in data set [1], the “Solubility DMSO 4 mg/ml” value is “Yes”, the “Solubility DMSO 10 mg/ml” value was “Yes”, the “Solubility EtOH 1 mg/ml” value is recorded as “YES” and the “Solubility EtOH 2 mg/ml” value is “Partial”. Further, in [1], the “Solubility H2O:DMSO 1:1 0.5 mg/mL” value is on record as “No”. Besides, in the data set on human tumor cell lines, the concentration giving a half-maximal response (EC50) is 0.37 nM, the “Fold (Zn-1/compound)” value is recorded as 7.3 and the “Fold (compound/Zn-1)” value was 0.1. Moreover, in the data set with p53R175H cells, the “More potent than the monomer from Zn-1” value was 14 fold. At mutant p53 [2], the “Wild type conformation change of mutant p53” value is listed as “induces a wild type conformation change”. In addition, in data set [3], the “p21, PUMA and GDF15 levels” value is reported as “markedly induced”. Also, the “Increases of p21, PUMA and GDF15 in p53R175H knock-out cells” value in [3] (same cell line with mutant p53R175H knocked out using CRISPR) was “not observed”. For the same compound, at mutant p53 [4], the “Cell growth inhibition after mutant p53 knock-down” value was “attenuated by more than a log fold”. Besides, the “COX1(h) % Inh.” value at COX1(h) was 54.8 % Inh. At COX2(h), the “COX2(h) % Inh.” value is on record as 50.7 % Inh. Also, the “5-HT2B % Inh.” value on 5-HT2B is reported as 58.7 % Inh.

Take `C/C(=N\NC(=S)N1CCC1)c1ccccn1` [ZMC-1, reference compound]: the “Solubility DMSO (3 mg/ml)” value in data set [1] (DMSO 4 mg/ml column, cell annotated (3 mg/ml)) was “Yes”.

In the case of `C/C(=N\NC(=S)N(C)C)c1ccc(O[C@H]2CCOC2)cn1.C/C(=N\NC(=S)N(C)C)c1ccc(O[C@H]2CCOC2)cn1.[Zn]` [Zn-15, Zn[(S,E)-N,N-dimethyl-2-(1-(5-((tetrahydrofuran-3-yl)oxy)pyridin-2-yl)ethylidene)hydrazine-1-carbothioamide]2], in the data set on human tumor cell lines, the EC50 was 7.08 nM, the “Fold (Zn-1/compound)” value was 2.6 and the “Fold (compound/Zn-1)” value was 0.4.

Turning to “Zn[(E)-N,N-dimethyl-2-(1-(4-(2-morpholinoethoxy)pyridin-2-yl)ethylidene)hydrazine-1-carbothioamide]2 [ZN-9]”, in data set [1], the “Solubility DMSO 10 mg/ml” value is “Yes” and the “Solubility EtOH 2 mg/ml” value was “Yes”. In the data set on human tumor cell lines, the EC50 was 18.1 nM, the “Fold (Zn-1/compound)” value is 0.1 and the “Fold (compound/Zn-1)” value is on record as 6.7.

For the compound “Zn[(E)-N,N-dimethyl-2-(1-(4-(2-morpholinoethoxy)pyridin-2-yl)ethylidene)hydrazine-1-carbothioamide]2 bis mesylate salt [ZN-9 Mesylate salt]”, the “Solubility 0.9% Saline” value in data set [1] (0.9% Saline) was in the range of 5000 to 10000 µg/mL.

Consider `C/C(=N\NC(=S)N1CCC1)c1ccccn1` [ZN-1, reference compound], for which, in data set [1], the “Solubility DMSO 4 mg/ml” value is reported as “Yes”, the “Solubility DMSO 10 mg/ml” value was “No”, the “Solubility EtOH 1 mg/ml” value is “No” and the “Solubility EtOH 2 mg/ml” value is “No”. For the same compound, the “Solubility H2O:DMSO 1:1 0.5 mg/mL” value in data set [1] is reported as “No”. Further, in the data set on human tumor cell lines (Homo sapiens, 72 h), the half-maximal effective concentration (EC50) was 2.69 nM. The “More potent than the monomer from Zn-1” value with p53R175H cells was determined as 3 fold. Besides, in data set [3], the “p21, PUMA and GDF15 levels” value is “markedly induced”.

A word on the EC50: it is the concentration giving half of the maximal effect.
